In patent US20050153894A1, “p21 peptides” (Cyclacel Limited, priority 1999, published 2005):
One block for each substance: values may come before it. Square brackets hold non-standard residues; d marks the D form. Phe(4-F) = N[C@@H](Cc1ccc(F)cc1)C(=O)O; Cit = NC(=O)NCCC[C@H](N)C(=O)O; dPsa = O-acetyl-D-phenylserine; Psa = O-acetylphenylserine; Abu = CC[C@H](N)C(=O)O

Legend:
Assay type in all cases: biochemical
CDK2/Cyclin E = molecular target: T1, CDK2/Cyclin E (Homo sapiens, UniProt P24864); assay: CDK2/Cyclin E kinase assay, phosphorylation of GST-Rb; settings: for Kinase Inhibition Cyclin E/CDK2 % Inhibition / Kinase Inhibition Cyclin E/CDK2 IC30: GST-pRb substrate, [ATP] = 100 μM
T1 construct: 6xHis; made in house; host or cells: Sf9 insect cells (baculovirus co-expression)
Description: (§1) The phosphorylation reaction mixture (total volume 40 μl) consisted of 50 mM HEPES pH 7.4, 20 mM MgCl2, 5 mM EGTA, 2 mM DTT, 20 mM β-glycerophosphate, 2 mM NaF, 1 mM Na3VO4, Protease Inhibitors Cocktail (Sigma, see above), BSA 0.5 mg/ml, 1 μg purified enzyme complex, 10 μl of GST-Rb-Sepharose beads, 100 μM ATP, 0.2 μCi ^32P-ATP. The reaction was carried out for 30 min at 30° C. at constant shaking. At the end of this period 100 μl of 50 mM HEPES, pH 7.4 and 1 mM ATP were added to each well and the total volume was transferred onto GFC filtered plate. The plate was washed 5 times with 200 μl of 50 mM HEPES, pH 7.4 and 1 mM ATP. To each well were added 50 μl scintillant liquid and the radioactivity of the samples was measured on Scintilation counter (Topcount, HP). The IC50 values of different peptides were calculated using GraFit software.

CDK4/Cyclin D1 = molecular target: T2, CDK4/Cyclin D1 (Homo sapiens, UniProt P24385); assay: CDK4/Cyclin D1 kinase assay, phosphorylation of GST-Rb; settings: for Kinase Inhibition Cyclin D1/CDK4 % Inhibition / Kinase Inhibition Cyclin D1/CDK4 IC30: GST-pRb substrate, [ATP] = 100 μM
T2 construct: made in house; host or cells: CDK4: Sf9 insect cells (baculovirus)
Description: as §1
Peptides were synthesized as described above. Cyclin D1 was expressed in E coli BL21(DE3) using PET expression vector and purified from the inclusion bodies. After refolding Cyclin D1 was cross-linked on SulfoLink agarose support (PIERCE). CDK4-6×His was expressed in Sf9 insect cells infected with the appropriate baculovirus construct and purified by metal-affinity chromatography (Quiagen). […] CDK4/Cyclin D1 phosphorilation of Rb was determined by incorporation of radio-labeled phosphate in GST-Rb in 96-well format kinase assay. […] The reaction was carried out for 30 min at 30 C at constant shaking. The GST-Rb-Sepharose beads were washed with 50 mM HEPES and 1 mM ATP and the radioactivity was measured on Scintillation counter (Topcount, HP)

CDK2/cyclin A = CDK2/cyclin A (Homo sapiens, UniProt P20248); assay: CDK2/cyclin A kinase assay, substrate pRb(773-928); settings: for Relative activity Kinase Inhibition: pRb substrate, [ATP] = 100 μM
Description: Reactions were stopped on ice, followed by filtration through p81 filterplates (Whatman Polyfiltronics, Kent, UK).

[1] = Arg156 substitutions, relative to H-His-Ala-Lys-Arg-Arg-Leu-Ile-Phe-NH2 (=1)
[2] = relative to H-His-Ala-Lys-Arg-Arg-Leu-Ile-Phe-NH2 (SEQ ID No. 36) = 1, CDK2/cyclin A kinase assay
[3] = multiple substitutions (Example 22), relative to SEQ ID No. 36 = 1, CDK2/cyclin A kinase assay

T2 sequence (P24385 whole entry): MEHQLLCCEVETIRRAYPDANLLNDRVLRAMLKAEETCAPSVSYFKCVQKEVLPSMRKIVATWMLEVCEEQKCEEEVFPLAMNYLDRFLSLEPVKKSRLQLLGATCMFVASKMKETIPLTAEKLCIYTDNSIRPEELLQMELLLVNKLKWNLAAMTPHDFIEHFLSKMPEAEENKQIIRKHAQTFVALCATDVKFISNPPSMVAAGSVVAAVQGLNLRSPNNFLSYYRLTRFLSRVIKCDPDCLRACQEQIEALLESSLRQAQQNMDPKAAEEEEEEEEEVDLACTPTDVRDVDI
T2 sequence (P11802 whole entry partner): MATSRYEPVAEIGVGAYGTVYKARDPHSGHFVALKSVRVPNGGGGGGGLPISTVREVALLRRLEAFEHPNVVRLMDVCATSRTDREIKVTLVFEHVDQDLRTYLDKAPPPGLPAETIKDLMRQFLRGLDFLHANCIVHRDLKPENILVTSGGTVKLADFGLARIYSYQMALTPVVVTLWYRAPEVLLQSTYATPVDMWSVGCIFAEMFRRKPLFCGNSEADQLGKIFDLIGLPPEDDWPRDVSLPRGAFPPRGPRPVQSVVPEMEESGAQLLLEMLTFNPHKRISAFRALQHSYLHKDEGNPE

- inhibition of CDK2/Cyclin E phosphorylation of GST-Rb, in words (CDK2/Cyclin E): active
- inhibition of CDK4/Cyclin D1 phosphorylation of GST-Rb, in words (CDK4/Cyclin D1): active
Substance: TDFYHSKRRLIF [p21(148-159)]

- Relative activity Kinase Inhibition (CDK2/cyclin A; [2]): <0.1
Substance: 115 (H-HAKRRLI[dPsa]-OH) [compound 115]

- Relative activity Kinase Inhibition (CDK2/cyclin A; [2]): <0.1
Substance: 117 (H-HSKRRLI[dPsa]-OH) [compound 117]

- inhibition of CDK2/cyclin A (pRb phosphorylation), in words (CDK2/cyclin A; b370: CDK2/cyclin A inhibition and/or cyclin A binding): particularly potent
Substance: H-His-Ala-Lys-Arg-Arg-Leu-Ile-[L-Psa]-OH (H-HAKRRLI[Psa]-OH)

- Relative activity Kinase Inhibition (CDK2/cyclin A; [2]): <0.1
Substance: 116 (H-HSKRRLI[Psa]-OH) [compound 116]

- Relative activity Kinase Inhibition (CDK2/cyclin A; [2]): 22
Substance: 114 (H-HAKRRLI[Psa]-OH) [compound 114]

Second part, the substance before the results:

Substance: DFYHSK
- Kinase Inhibition Cyclin E/CDK2 % Inhibition (CDK2/Cyclin E): 45%
- Kinase Inhibition Cyclin E/CDK2 IC30 (CDK2/Cyclin E): 200 µM
- Kinase Inhibition Cyclin D1/CDK4 % Inhibition (CDK4/Cyclin D1): 10%

Substance: HSKRRL
- Kinase Inhibition Cyclin E/CDK2 % Inhibition (CDK2/Cyclin E): 45%
- Kinase Inhibition Cyclin E/CDK2 IC30 (CDK2/Cyclin E): >200 µM

Substance: H-His-Ala-Lys-Arg-Sar-Leu-Ile Phe-NH2
- Relative activity Kinase Inhibition (CDK2/cyclin A; [1]): <0.1

Substance: FYHSKRRLIFS
- Kinase Inhibition Cyclin E/CDK2 % Inhibition (CDK2/Cyclin E): 80%
- Kinase Inhibition Cyclin E/CDK2 IC30 (CDK2/Cyclin E): 6.8 ± 1.0 µM
- Kinase Inhibition Cyclin D1/CDK4 % Inhibition (CDK4/Cyclin D1): 70%
- Kinase Inhibition Cyclin D1/CDK4 IC30 (CDK4/Cyclin D1): 22 ± 5 µM

Substance: AFYHSKRRLIFS
- Kinase Inhibition Cyclin E/CDK2 % Inhibition (CDK2/Cyclin E): 70%
- Kinase Inhibition Cyclin E/CDK2 IC30 (CDK2/Cyclin E): 11 ± 2 µM
- Kinase Inhibition Cyclin D1/CDK4 % Inhibition (CDK4/Cyclin D1): 72%
- Kinase Inhibition Cyclin D1/CDK4 IC30 (CDK4/Cyclin D1): 22 ± 4 µM

Substance: 125 (H-AAKRRLA[Phe(4-F)]-NH2; SMILES CC(C)C[C@H](NC(=O)[C@H](CCCNC(=N)N)NC(=O)[C@H](CCCNC(=N)N)NC(=O)[C@H](CCCCN)NC(=O)[C@H](C)NC(=O)[C@H](C)N)C(=O)N[C@@H](C)C(=O)N[C@@H](Cc1ccc(F)cc1)C(N)=O) [compound 125]
- Relative activity Kinase Inhibition (CDK2/cyclin A; [3]): 20

Substance: FYHSKRRLIFSK
- Kinase Inhibition Cyclin E/CDK2 % Inhibition (CDK2/Cyclin E): 70%
- Kinase Inhibition Cyclin D1/CDK4 % Inhibition (CDK4/Cyclin D1): 70%
- Kinase Inhibition Cyclin D1/CDK4 IC30 (CDK4/Cyclin D1): 41 ± 10 µM

Substance: DFYASKRRLIFS
- Kinase Inhibition Cyclin E/CDK2 % Inhibition (CDK2/Cyclin E): 80%
- Kinase Inhibition Cyclin E/CDK2 IC30 (CDK2/Cyclin E): 5.1 ± 0.5 µM
- Kinase Inhibition Cyclin D1/CDK4 % Inhibition (CDK4/Cyclin D1): 60%
- Kinase Inhibition Cyclin D1/CDK4 IC30 (CDK4/Cyclin D1): 73 ± 42 µM

Substance: 124 (H-AAKR[Cit]LI[Phe(4-F)]-NH2; SMILES CC[C@H](C)[C@H](NC(=O)[C@H](CC(C)C)NC(=O)[C@H](CCCNC(N)=O)NC(=O)[C@H](CCCNC(=N)N)NC(=O)[C@H](CCCCN)NC(=O)[C@H](C)NC(=O)[C@H](C)N)C(=O)N[C@@H](Cc1ccc(F)cc1)C(N)=O) [compound 124]
- Relative activity Kinase Inhibition (CDK2/cyclin A; [3]): 10

Substance: 123 (H-AAKRRLI[Phe(4-F)]-NH2; SMILES CC[C@H](C)[C@H](NC(=O)[C@H](CC(C)C)NC(=O)[C@H](CCCNC(=N)N)NC(=O)[C@H](CCCNC(=N)N)NC(=O)[C@H](CCCCN)NC(=O)[C@H](C)NC(=O)[C@H](C)N)C(=O)N[C@@H](Cc1ccc(F)cc1)C(N)=O) [compound 123]
- Relative activity Kinase Inhibition (CDK2/cyclin A; [3]): 80

Substance: DFYHSKR
- Kinase Inhibition Cyclin E/CDK2 % Inhibition (CDK2/Cyclin E): 50%
- Kinase Inhibition Cyclin E/CDK2 IC30 (CDK2/Cyclin E): 200 µM

Substance: H-His-Ala-Lys-Arg-Aib-Leu-Ile Phe-NH2
- Relative activity Kinase Inhibition (CDK2/cyclin A; [1]): <0.1

Substance: 127 (H-AAKQRLI[Phe(4-F)]-NH2; SMILES CC[C@H](C)[C@H](NC(=O)[C@H](CC(C)C)NC(=O)[C@H](CCCNC(=N)N)NC(=O)[C@H](CCC(N)=O)NC(=O)[C@H](CCCCN)NC(=O)[C@H](C)NC(=O)[C@H](C)N)C(=O)N[C@@H](Cc1ccc(F)cc1)C(N)=O) [compound 127]
- Relative activity Kinase Inhibition (CDK2/cyclin A; [3]): 4

Substance: 122 (H-AA[Abu]RRLI[Phe(4-F)]-NH2; SMILES CC[C@H](NC(=O)[C@H](C)NC(=O)[C@H](C)N)C(=O)N[C@@H](CCCNC(=N)N)C(=O)N[C@@H](CCCNC(=N)N)C(=O)N[C@@H](CC(C)C)C(=O)N[C@H](C(=O)N[C@@H](Cc1ccc(F)cc1)C(N)=O)[C@@H](C)CC) [compound 122]
- Relative activity Kinase Inhibition (CDK2/cyclin A; [3]): 60

Substance: 126 (H-AA[Abu]RSLI[Phe(4-F)]-NH2; SMILES CC[C@H](NC(=O)[C@H](C)NC(=O)[C@H](C)N)C(=O)N[C@@H](CCCNC(=N)N)C(=O)N[C@@H](CO)C(=O)N[C@@H](CC(C)C)C(=O)N[C@H](C(=O)N[C@@H](Cc1ccc(F)cc1)C(N)=O)[C@@H](C)CC) [compound 126]
- Relative activity Kinase Inhibition (CDK2/cyclin A; [3]): 14
